Results reported in patent publication US10772893B2, “2-(morpholin-4-yl)-1,7-naphthyridines” (BAYER PHARMA AKTIENGESELLSCHAFT, priority 2014, dated 2020).

Legend:
Assay in all cases: Proliferation assay, crystal violet staining
HeLa-MaTu-ADR cells = type: cell-based; conditions: Homo sapiens, 96 h, 4 days incubation, read-out: Inhibition of HeLa-MaTu-ADR cell proliferation
Protocol: (§1) After 24 hours, the cells of one plate (zero plate) were dyed with crystal violet (see below), whereas the medium of the other plates was replaced with fresh culture medium (200 μl) to which the test substances were added in various concentrations (0 μM, and also in the range of 0.001-10 μM; the final concentration of the solvent dimethyl sulphoxide was 0.1 or 0.5%). The cells were incubated for 4 days in the presence of the test substances. […] After washing the fixed cells three times with water, the plates were dried at room temperature. The cells were stained by adding 100 μl/measurement point of a 0.1% strength crystal violet solution (pH adjusted to pH 3 by adding acetic acid). After washing the cells three times with water, the plates were dried at room temperature. The dye was dissolved by adding 100 μl/measurement point of a 10% strength acetic acid solution. […] The percentage change in cell growth was calculated by normalizing the measured values to the absorbance values of the zero plate (=0%) and the absorbance of the untreated (0 W) cells (=100%). The IC50 values were determined by means of a four parameter fit.

Caco-2 cells = type: cell-based; conditions: Homo sapiens, Caco-2, 96 h, 4 days incubation, read-out: Inhibition of Caco-2 cell proliferation
Protocol: as §1

HeLa cells = conditions: Homo sapiens, 96 h, read-out: Inhibition of HeLa cell proliferation, HeLa cells, 4 days incubation
NCI-H460 cells = conditions: Homo sapiens, NCI-H460, 96 h, read-out: Inhibition of NCI-H460 cell proliferation, NCI-H460 cells, 4 days incubation
Protocol: as §1

DU145 cells = conditions: Homo sapiens, DU-145, 96 h, read-out: Inhibition of DU145 cell proliferation, DU145 cells, 4 days incubation

| Structure (SMILES) | IC50 (HeLa-MaTu-ADR cells) [nM] | IC50 (Caco-2 cells) [nM] | IC50 (HeLa cells) [nM] | IC50 (NCI-H460 cells) [nM] | IC50 (DU145 cells) [nM] |
| --- | --- | --- | --- | --- | --- |
| CC(C)[S+]([O-])c1cc(N2CCOCC2)nc2c(-c3ccn[nH]3)nccc12 (stereo not shown) [Example 196, 2-(morpholin-4-yl)-4-[propan-2-ylsulfinyl]-8-(1H-pyrazol-5-yl)-1,7-naphthyridine] | > 3000 | 869 | 1020 | 291 | 144 |
| C=C(C)c1cc(N2CCOCC2)nc2c(-c3cc[nH]n3)nccc12 [Example 10, 4-Isopropenyl-2-(morpholin-4-yl)-8-(1H-pyrazol-3-yl)-[1,7]naphthyridine] | 1300 | 1460 | 496 | 447 | 827 |
| N#Cc1cc(N2CCOCC2)nc2c(-c3cc[nH]n3)nccc12 [Example 34, 2-(morpholin-4-yl)-8-(1H-pyrazol-3-yl)-[1,7]naphthyridine-4-carbonitrile] | > 3000 | 4990 | 1020 | 1630 | 2390 |
| COc1cc(N2CCOCC2)nc2c(-c3cc[nH]n3)nccc12 [Example 44, 4-methoxy-2-(morpholin-4-yl)-8-(1H-pyrazol-3-yl)-[1,7]naphthyridine] | > 10000 | 7690 | 1010 | 2010 | 4450 |
| CCS(=O)(CC)=Nc1cc(N2CCOC[C@H]2C)nc2c(-c3ccn[nH]3)nccc12 [Example 126, 4-{[diethyl(oxido)-λ^6-sulfanylidene]amino}-2-[(3R)-3-methylmorpholin-4-yl]-8-(1H-pyrazol-5-yl)-1,7-naphthyridine] | 595 | 340 | 170 | 88.4 | 94 |
| C[C@@H]1COCCN1c1cc(-c2ccc(S(C)(=O)=O)cc2F)c2ccnc(-c3ccn[nH]3)c2n1 [Example 74, 4-[2-fluoro-4-(methylsulfonyl)phenyl]-2-[(3R)-3-methylmorpholin-4-yl]-8-(1H-pyrazol-5-yl)-1,7-naphthyridine] | > 1000 | > 1000 | 203 | > 1000 | > 1000 |
| CC(C)S(=O)(=O)c1ccc(-c2cc(N3CCOC[C@H]3C)nc3c(-c4ccn[nH]4)nccc23)cc1 [Example 151, 4-[4-(isopropylsulfonyl)phenyl]-2-[(3R)-3-methylmorpholin-4-yl]-8-(1H-pyrazol-5-yl)-1,7-naphthyridine] | 2150 | 2050 | 921 | 673 | 1900 |
| COc1ncccc1-c1cc(N2CCOC[C@H]2C)nc2c(-c3ccn[nH]3)nccc12 [Example 220, 4-(2-methoxypyridin-3-yl)-2-[(3R)-3-methylmorpholin-4-yl]-8-(1H-pyrazol-5-yl)-1,7-naphthyridine] | 993 | > 1000 | 604 | 303 | 334 |
| CC(C)Oc1cc(N2CCOCC2)nc2c(-c3cc[nH]n3)nccc12 [Example 40, 4-Isopropoxy-2-(morpholin-4-yl)-8-(1H-pyrazol-3-yl)-[1,7]naphthyridine] | 2260 | 1970 | 2720 | 672 | 1150 |
| CC(C)S(=O)(=O)c1cc(N2CCOCC2)nc2c(-c3ccn[nH]3)nccc12 [Example 199, 2-(morpholin-4-yl)-4-(propan-2-ylsulfonyl)-8-(1H-pyrazol-5-yl)-1,7-naphthyridine] | 965 | 708 | 857 | 320 | 244 |
| CC(C)Oc1cc(N2CCOC[C@H]2C)nc2c(-c3cc[nH]n3)nccc12 [Example 51, 4-Isopropoxy-2-((R)-3-methylmorpholin-4-yl)-8-(1H-pyrazol-3-yl)-[1,7]naphthyridine] | 1800 | 2930 | 1230 | 391 | 895 |
